Assay results taken from US20190314361A1 (Athenex Therapeutics Limited, priority 2018, published 2019).
Values after ≈ are worked out from the molar mass of the structure shown. Values joined by “and” are separate entries in the source; they are usually repeats but may differ in a detail not shown here. Equal values may be shown once. Read-outs that look alike come from different tables or passages of the source.

Columns and labels:
[1] = Cardiovascular safety pharmacology in dogs; type: in vivo, dog; details: oral administration
[2] = CNS safety pharmacology study in rats; type: in vivo, rat; details: oral administration
SVRbag4 cells = assay: In vitro cytotoxicity (MTT) in SVRbag4 cells; type: cell-based, mouse; details: SVRbag4, 72 hours, Mean ± SD
Description: (§1) Three independent experiments of two replicates were completed. A 10 μL aliquot of 3-(4,5-dimethylthiazol-2-yl)-2,5-diphenyltetrazolium bromide (MTT) solution (5 mg/mL in PBS) was added to each well and incubated at 37° C. for 2 hours. The culture medium was removed followed by addition of 100 μL of DMSO to each well. The absorbance in each well was measured at 540 nm using a SpectraMax microplate reader. A sigmoid Emax model using nonlinear regression (Equation 1) with least squares fit was used to estimate Emax and GI50 values using GraphPad Prism 6 for each experiment:
(§2) The average Emax and GI50 values and standard deviated from three individual experiments were calculated and reported. R-squared of all curve fits exceeded 0.9.

[3] = human; for AUC0-24 / Cmax: range across dose levels, 2 consecutive daily oral doses
Description: A 2-part study was conducted in subjects with advanced/metastatic or recurrent gastric cancer. […] In some cases, an additional 15 mg tablet of Compound A on Day 2 was given in each dosing week. A total of 56 subjects enrolled in this study: 10 subjects with advanced malignant tumors in Part 1 and 46 subjects with advanced gastric cancer in Part 2.

[4] = dogs
[5] = Paclitaxel pharmacokinetics in rats after single oral dose with Compound A; type: in vivo, rat
[6] = Paclitaxel pharmacokinetics in dogs after single oral dose with Compound A; type: in vivo, dog
MS1 cells = assay: In vitro cytotoxicity (MTT) in MS1 cells; type: cell-based, mouse; details: MS1, 72 hours, Mean ± SD
Description: as §1, §2

[7] = tested on: NCI-H460 lung human cancer cell line; details: Athymic nude mice, paclitaxel alone 24 mg/kg IV, every other day for 4 doses
Description: (§3) In these studies, tumor inhibition rate (IR %) was calculated as ([1−relative tumor growth in treated group/relative tumor growth in control group]×100). Tumor regression was calculated as (Mean Tumor WeightEnd of treatment/Mean tumor WeightBeginning of treatment)×100. Therefore, a value <100% for tumor regression indicates a decrease in tumor weight over the course of the study and a value >100% indicates an increase in tumor weight. Tumor growth delay was calculated as the median number of days to reach two tumor mass doublings.

[8] = tested on: A431 vaginal epidermoid human cancer cell line; details: NU/Nu Balb/C mice, paclitaxel alone 30 mg/kg IV, 1x weekly for 3 weeks
Description: as §3

[9] = tested on: SKOV-3 ovarian human cancer cell line; details: NU/Nu Balb/C mice, paclitaxel alone 30 mg/kg IV, 1x weekly for 3 weeks
Description: as §3

[10] = tested on: HT-29 colon human cancer cell line; details: NU/Nu Balb/C mice
Description: as §3

[11] = tested on: SK-OV-3 ovarian human cancer cell line; details: NCr-nu (athymic) mice, paclitaxel alone 18 mg/kg IV, every other day for 4 doses
Description: as §3

[12] = tested on: MDA-MB-231 mammary human cancer cell line; details: NCr-nu (athymic) mice, paclitaxel alone 18 mg/kg IV, every other day for 4 doses
Description: as §3

[13] = for AUCinf / AUClast / CL/F / Cmax / MRTinf / Vd/F / t1/2 / CLR: in vivo, po
HMEC-1 cells = assay: In vitro cytotoxicity (MTT) in HMEC-1 cells; type: cell-based, human; details: HMEC-1, 72 hours, Mean ± SD
Description: as §1, §2

[14] = tested on: tubulin in MS1, SVRA221a, and SVRbag4 cell lines; assay: Immunofluorescence microscopy of tubulin disruption; type: cell-based, mouse; details: SVRbag4 treated with 1-100 nM paclitaxel for 3 hours
Description: Coverslips (22-mm) were pre-coated with rat tail collagen for 1 hour then seeded with cells in 6-well plates for 24 hours before treatment. […] After blocking with 2% BSA in PBS for 30 min, cells were incubated with anti α-tubulin antibody (Sigma 6199) diluted in blocking buffer (2% BSA in PBS) for 1.5 hours at room temperature. Cells were washed three times with PBS and incubated with […] anti-Mouse IgG (Invitrogen) for 1 hours at room temperature. Following three PBS washes, coverslips were mounted on glass slides in ProLong antifade reagent (Invitrogen). Fluorescent images were captured using a Nikon TE2000-E inverted microscope for two independent experiments.

SVRA221a cells = assay: In vitro cytotoxicity (MTT) in SVRA221a cells; type: cell-based, mouse; details: 72 hours, Mean ± SD
Description: as §1, §2

[15] = Mus musculus, medium pre-supplemented with 1 μM Compound A
[16] = Fasted, single oral dose paclitaxel 6 mg/kg with Compound A 3 mg/kg
[17] = Fed, single oral dose paclitaxel 6 mg/kg with Compound A 3 mg/kg
[18] = single oral dose paclitaxel 5 mg/kg with Compound A
[19] = single oral dose paclitaxel 10 mg/kg with Compound A
[20] = single oral dose paclitaxel 20 mg/kg with Compound A
[21] = single oral dose paclitaxel 30 mg/kg with Compound A
[22] = single oral dose paclitaxel 40 mg/kg with Compound A
[23] = single oral dose paclitaxel 50 mg/kg with Compound A
[24] = single oral dose paclitaxel 2 mg/kg with Compound A
[25] = single oral dose paclitaxel 4 mg/kg with Compound A
[26] = single oral dose paclitaxel 6 mg/kg with Compound A

COc1cc2c(cc1OC)CN(CCc1ccc(-n3nnc(-c4cc(OC)c(OC)cc4NC(=O)c4cc(=O)c5ccccc5o4)n3)cc1)CC2 [Compound A]
Effect on PR and QRS intervals [1]: absence
Effect on body temperature [2]: absence

CC(=O)O[C@H]1C(=O)[C@@]2(C)[C@H]([C@H](OC(=O)c3ccccc3)[C@]3(O)C[C@H](OC(=O)[C@H](O)[C@@H](NC(=O)c4ccccc4)c4ccccc4)C(C)=C1C3(C)C)[C@]1(OC(C)=O)CO[C@@H]1C[C@@H]2O [Paclitaxel, 5,20-Epoxy-1,2,4,7,10-13-hexahydroxytax-11-en-9-one-4,10-diacetate 2-benzoate 13-ester with (2R,3S)—N-benzoyl-3-phenylisoserine]
GI50 (SVRbag4 cells; [15]): 3.9 ± 1 ng/mL (≈ 4.57 nM)
Emax (% inhibition) (SVRbag4 cells): 99 ± 1.4 % inhibition
Overall exposure on Day 2, higher than Day 1 ([3]; in vivo, po): 20-30%
AUC0-24 ([3]; Day 1): 611 to 894 ng·h/mL
Cmax ([3]; Day 1): 202 to 280 ng/mL
AUC0-24 ([3]; Day 2): 735 to 1081 ng·h/mL
Cmax ([3]; Day 2): 159 to 315 ng/mL
AUClast [4, 16]: 1599.8 ± 416.5 ng·h/mL
CL/F [4, 16]: 4.2 ± 1.2 L/h
Tmax [4, 16]: 0.5 ± 0.0 h
t1/2 [4, 16]: 9.4 ± 0.3 h
AUClast [4, 17]: 849.1 ± 119.9 ng·h/mL
CL/F [4, 17]: 6.4 ± 1.3 L/h
Cmax [4, 17]: 299.0 ± 54.6 ng/mL
Tmax [4, 17]: 0.7 ± 0.2 h
t1/2 [4, 17]: 9.9 ± 2.7 h
Paclitaxel Cmax and AUC, fasted group as compared to fed group ([4]; orally administered paclitaxel): ~2 fold
AUClast Paclitaxel [5, 18]: 333 ng·h/mL
Cmax Paclitaxel [5, 18]: 103 ng/mL
Tmax Paclitaxel [5, 18]: 0.6 h
AUClast Paclitaxel [5, 19]: 1027 ng·h/mL
Cmax Paclitaxel [5, 19]: 356 ng/mL
Tmax Paclitaxel [5, 19]: 0.7 h
AUClast Paclitaxel [5, 20]: 3009 ng·h/mL
Cmax Paclitaxel [5, 20]: 852 ng/mL
Tmax Paclitaxel [5, 20]: 1.2 h
AUClast Paclitaxel [5, 21]: 6638 ng·h/mL
Cmax Paclitaxel [5, 21]: 1761 ng/mL
Tmax Paclitaxel [5, 21]: 1.2 h
t1/2 Paclitaxel [5, 21]: 6.0 h
AUClast Paclitaxel [5, 22]: 11052 ng·h/mL
Cmax Paclitaxel [5, 22]: 2488 ng/mL
Tmax Paclitaxel [5, 22]: 1.5 h
t1/2 Paclitaxel [5, 22]: 5.5 h
AUClast Paclitaxel [5, 23]: 13124 ng·h/mL
Cmax Paclitaxel [5, 23]: 3067 ng/mL
Tmax Paclitaxel [5, 23]: 1.4 h
t1/2 Paclitaxel [5, 23]: 5.3 h
AUClast Paclitaxel [6, 24]: 413 ng·h/mL
Tmax Paclitaxel [6, 24]: 0.5 h
AUClast Paclitaxel [6, 25]: 1331 ng·h/mL
Tmax Paclitaxel [6, 25]: 0.7 h
AUClast Paclitaxel [6, 26]: 2123 ng·h/mL
Tmax Paclitaxel [6, 26]: 0.5 h
Emax (% inhibition) (MS1 cells): 93 ± 4.5 % inhibition
GI50 (MS1 cells; Mus musculus, MS-1, medium pre-supplemented with 1 μM Compound A): 1.8 ± 0.36 ng/mL (≈ 2.11 nM)
Effect: growth delay [7]: 16.3 days
Effect: tumor inhibition rate (IR %) [8]: 45.41 IR %
Effect: tumor inhibition rate (IR %) [9]: 72.79 IR %
Effect: tumor regression ([10]; paclitaxel alone 20 mg/kg IV every 4 days for 4 doses, >100% = increase in tumor weight): 163.09% tumor
Effect: tumor inhibition rate (IR %) ([10]; paclitaxel alone 25 mg/kg IP every 4 days for 4 doses): 65.82 IR %
Effect: growth delay [11]: 43.8 days
Effect: growth delay [12]: >55.9 days
MTD ([13]; 24 subjects with advanced solid cancer, oral paclitaxel 60 to 420 mg/m^2 on days 1, 8, 15 of 28-day cycle with Compound A): not reached
AUCinf ([13]; human, 60 mg/m2): 727.1 ng·h/mL
AUClast ([13]; human, 60 mg/m2): 584.1 ng·h/mL
CL/F ([13]; human, 60 mg/m2): 178.4 L/h
Cmax ([13]; human, 60 mg/m2): 149.6 ng/mL
MRTinf ([13]; human, 60 mg/m2): 28.6 h
Vd/F ([13]; human, 60 mg/m2): 9128.7 L
t1/2 ([13]; human, 60 mg/m2): 32.1 h
AUCinf ([13]; human, 120 mg/m2): 1840.1 ng·h/mL
AUClast ([13]; human, 120 mg/m2): 1611.1 ng·h/mL
CLR ([13]; human, 120 mg/m2): 3.0 L/h
MRTinf ([13]; human, 120 mg/m2): 17.0 h
Vd/F ([13]; human, 120 mg/m2): 4036.0 L
AUCinf ([13]; human, 180 mg/m2): 1985.0 ng·h/mL
AUClast ([13]; human, 180 mg/m2): 1673.9 ng·h/mL
CL/F ([13]; human, 180 mg/m2): 173.4 L/h
CLR ([13]; human, 180 mg/m2): 1.8 L/h
Cmax ([13]; human, 180 mg/m2): 432.0 ng/mL
MRTinf ([13]; human, 180 mg/m2): 21.9 h
Vd/F ([13]; human, 180 mg/m2): 6030.7 L
t1/2 ([13]; human, 180 mg/m2): 24.4 h
AUCinf ([13]; human, 240 mg/m2): 2971.2 ng·h/mL
AUClast ([13]; human, 240 mg/m2): 2547.4 ng·h/mL
CL/F ([13]; human, 240 mg/m2): 147.6 L/h
CLR ([13]; human, 240 mg/m2): 2.4 L/h
Cmax ([13]; human, 240 mg/m2): 509.6 ng/mL
MRTinf ([13]; human, 240 mg/m2): 23.4 h
Vd/F ([13]; human, 240 mg/m2): 6011.5 L
t1/2 ([13]; human, 240 mg/m2): 25.7 h
AUCinf ([13]; human, 300 mg/m2): 3481.1 ng·h/mL
AUClast ([13]; human, 300 mg/m2): 3135.0 ng·h/mL
CLR ([13]; human, 300 mg/m2): 2.0 L/h
MRTinf ([13]; human, 300 mg/m2): 16.2 h
Vd/F ([13]; human, 300 mg/m2): 4927.3 L
AUCinf ([13]; human, 360 mg/m2): 2851.7 ng·h/mL
AUClast ([13]; human, 360 mg/m2): 2512.1 ng·h/mL
CL/F ([13]; human, 360 mg/m2): 228.7 L/h
CLR ([13]; human, 360 mg/m2): 7.3 L/h
Cmax ([13]; human, 360 mg/m2): 655.0 ng/mL
MRTinf ([13]; human, 360 mg/m2): 18.7 h
Vd/F ([13]; human, 360 mg/m2): 6837.8 L
t1/2 ([13]; human, 360 mg/m2): 20.8 h
AUCinf ([13]; human, 420 mg/m2): 3731.5 ng·h/mL
AUClast ([13]; human, 420 mg/m2): 3407.1 ng·h/mL
CL/F ([13]; human, 420 mg/m2): 244.9 L/h
CLR ([13]; human, 420 mg/m2): 2.9 L/h
Cmax ([13]; human, 420 mg/m2): 707.5 ng/mL
MRTinf ([13]; human, 420 mg/m2): 14.7 h
Vd/F ([13]; human, 420 mg/m2): 7175.1 L
t1/2 ([13]; human, 420 mg/m2): 19.9 h
T1/2 ([13]; human, range over oral paclitaxel doses 60 to 420 mg/m^2 with Compound A): 19.9 to 32.1 h
Emax (% inhibition) (HMEC-1 cells): 99 ± 0.10 % inhibition
GI50 (HMEC-1 cells; Homo sapiens, medium pre-supplemented with 1 μM Compound A): 0.46 ± 0.23 ng/mL (≈ 0.539 nM)
concentration at which condensed and rounded morphology and polymerization of microtubules start [14]: 5-10 nM and 4.2-8.5 ng/mL
Emax (% inhibition) (SVRA221a cells): 96 ± 1.1 % inhibition
GI50 (SVRA221a cells; [15]): 1.8 ± 1 ng/mL (≈ 2.11 nM)
